From ChEMBL document CHEMBL2440080, “Synthesis and biological evaluation of novel acylhydrazone derivatives as potential antitumor agents” (Bioorg Med Chem, 2013)

Key:
Format in all cases: functional
RXF 393 = assay: Cytotoxicity against human RXF393 cells after 48 hrs by sulforhodamine B assay; conditions: RXF 393, 48 h
HCC 2998 = assay: Cytotoxicity against human HCC2998 cells after 48 hrs by sulforhodamine B assay; conditions: HCC 2998, 48 h
[1] = Cytotoxicity against human EKVX cells after 48 hrs by sulforhodamine B assay
HOP-62 = assay: Cytotoxicity against human HOP62 cells after 48 hrs by sulforhodamine B assay; conditions: HOP-62, 48 h
HL-60(TB) = assay: Cytotoxicity against human HL-60(TB) cells after 48 hrs by sulforhodamine B assay; conditions: HL-60, 48 h
NCI-H226 = assay: Cytotoxicity against human NCI-H226 cells after 48 hrs by sulforhodamine B assay; conditions: NCI-H226, 48 h
OVCAR-8 = assay: Cytotoxicity against human OVCAR8 cells after 48 hrs by sulforhodamine B assay; conditions: OVCAR-8, 48 h
MDA-MB-231 = assay: Cytotoxicity against human MDA-MB-231 cells after 48 hrs by sulforhodamine B assay; conditions: MDA-MB-231, 48 h
NCI-H322M = assay: Cytotoxicity against human NCI-H322M cells after 48 hrs by sulforhodamine B assay
OVCAR-5 = assay: Cytotoxicity against human OVCAR5 cells after 48 hrs by sulforhodamine B assay; conditions: OVCAR-5, 48 h
NCI/ADR-RES = assay: Cytotoxicity against human NCI/ADR-RES cells after 48 hrs by sulforhodamine B assay
SW-620 = assay: Cytotoxicity against human SW620 cells after 48 hrs by sulforhodamine B assay; conditions: SW-620, 48 h
SF-268 = assay: Cytotoxicity against human SF268 cells after 48 hrs by sulforhodamine B assay; conditions: SF-268, 48 h
UACC-257 = assay: Cytotoxicity against human UACC257 cells after 48 hrs by sulforhodamine B assay; conditions: UACC-257, 48 h
LOX IMVI = assay: Cytotoxicity against human LOXIMVI cells after 48 hrs by sulforhodamine B assay
SK-MEL-28 = assay: Cytotoxicity against human SK-MEL-28 cells after 48 hrs by sulforhodamine B assay; conditions: SK-MEL-28, 48 h
HCT-116 = assay: Cytotoxicity against human HCT116 cells after 48 hrs by sulforhodamine B assay; conditions: HCT-116, 48 h
A498 = assay: Cytotoxicity against human A498 cells after 48 hrs by sulforhodamine B assay; conditions: A498, 48 h
M14 = assay: Cytotoxicity against human M14 cells after 48 hrs by sulforhodamine B assay; conditions: M14, 48 h
SK-OV-3 = assay: Cytotoxicity against human SKOV3 cells after 48 hrs by sulforhodamine B assay; conditions: SK-OV-3, 48 h
IGROV-1 = assay: Cytotoxicity against human IGROV1 cells after 48 hrs by sulforhodamine B assay; conditions: IGROV-1, 48 h
ACHN = assay: Cytotoxicity against human ACHN cells after 48 hrs by sulforhodamine B assay
HT-29 = assay: Cytotoxicity against human HT-29 cells after 48 hrs by sulforhodamine B assay; conditions: HT-29, 48 h
COLO 205 = assay: Cytotoxicity against human COLO205 cells after 48 hrs by sulforhodamine B assay; conditions: COLO 205, 48 h
SK-MEL-2 = assay: Cytotoxicity against human SK-MEL-2 cells after 48 hrs by sulforhodamine B assay; conditions: SK-MEL-2, 48 h
DU-145 = assay: Cytotoxicity against human DU145 cells after 48 hrs by sulforhodamine B assay; conditions: DU-145, 48 h
A549 = assay: Cytotoxicity against human A549/ATCC cells after 48 hrs by sulforhodamine B assay; conditions: A549, 48 h
SNB-75 = assay: Cytotoxicity against human SNB75 cells after 48 hrs by sulforhodamine B assay; conditions: SNB-75, 48 h
BT-549 = assay: Cytotoxicity against human BT549 cells after 48 hrs by sulforhodamine B assay; conditions: BT-549, 48 h
MCF7 = assay: Cytotoxicity against human MCF7 cells after 48 hrs by sulforhodamine B assay; conditions: MCF7, 48 h
HOP-92 = assay: Cytotoxicity against human HOP92 cells after 48 hrs by sulforhodamine B assay; conditions: HOP-92, 48 h
SN12C = assay: Cytotoxicity against human SN12C cells after 48 hrs by sulforhodamine B assay
U-251 = assay: Cytotoxicity against human U251 cells after 48 hrs by sulforhodamine B assay; conditions: U-251, 48 h
UO-31 = assay: Cytotoxicity against human UO31 cells after 48 hrs by sulforhodamine B assay; conditions: UO-31, 48 h
RPMI-8226 = assay: Cytotoxicity against human RPMI8226 cells after 48 hrs by sulforhodamine B assay; conditions: RPMI-8226, 48 h
OVCAR-3 = assay: Cytotoxicity against human OVCAR3 cells after 48 hrs by sulforhodamine B assay; conditions: OVCAR-3, 48 h
[2] = Cytotoxicity against human Hs 578T cells after 48 hrs by sulforhodamine B assay
NCI-H460 = assay: Cytotoxicity against human NCI-H460 cells after 48 hrs by sulforhodamine B assay; conditions: NCI-H460, 48 h
KM12 = assay: Cytotoxicity against human KM12 cells after 48 hrs by sulforhodamine B assay; conditions: KM12, 48 h
CAKI-1 = assay: Cytotoxicity against human CAKI-1 cells after 48 hrs by sulforhodamine B assay; conditions: CAKI-1, 48 h
MOLT-4 = assay: Cytotoxicity against human MOLT4 cells after 48 hrs by sulforhodamine B assay; conditions: MOLT-4, 48 h
786-0 = assay: Cytotoxicity against human 786-0 cells after 48 hrs by sulforhodamine B assay; conditions: 786-0, 48 h
MDA-MB-435 = assay: Cytotoxicity against human MDA-MB-435 cells after 48 hrs by sulforhodamine B assay; conditions: MDA-MB-435, 48 h
SR = assay: Cytotoxicity against human SR cells after 48 hrs by sulforhodamine B assay
OVCAR-4 = assay: Cytotoxicity against human OVCAR4 cells after 48 hrs by sulforhodamine B assay; conditions: OVCAR-4, 48 h
T47D = assay: Cytotoxicity against human T47D cells after 48 hrs by sulforhodamine B assay
PC-3 = assay: Cytotoxicity against human PC3 cells after 48 hrs by sulforhodamine B assay; conditions: PC-3, 48 h
SNB-19 = assay: Cytotoxicity against human SNB19 cells after 48 hrs by sulforhodamine B assay; conditions: SNB-19, 48 h
SF-295 = assay: Cytotoxicity against human SF295 cells after 48 hrs by sulforhodamine B assay; conditions: SF-295, 48 h
HCT-15 = assay: Cytotoxicity against human HCT15 cells after 48 hrs by sulforhodamine B assay; conditions: HCT-15, 48 h
NCI-H23 = assay: Cytotoxicity against human NCI-H23 cells after 48 hrs by sulforhodamine B assay; conditions: NCI-H23, 48 h
NCI-H522 = assay: Cytotoxicity against human NCI-H522 cells after 48 hrs by sulforhodamine B assay; conditions: NCI-H522, 48 h
SF-539 = assay: Cytotoxicity against human SF539 cells after 48 hrs by sulforhodamine B assay; conditions: SF-539, 48 h
Malme-3M = assay: Cytotoxicity against human MALME-3M cells after 48 hrs by sulforhodamine B assay
CCRF-CEM = assay: Cytotoxicity against human CCRF-CEM cells after 48 hrs by sulforhodamine B assay
TK-10 = assay: Cytotoxicity against human TK10 cells after 48 hrs by sulforhodamine B assay; conditions: TK-10, 48 h
SK-MEL-5 = assay: Cytotoxicity against human SK-MEL-5 cells after 48 hrs by sulforhodamine B assay; conditions: SK-MEL-5, 48 h
UACC-62 = assay: Cytotoxicity against human UACC62 cells after 48 hrs by sulforhodamine B assay; conditions: UACC-62, 48 h

## CCN(CC)c1ccc(/C=N/NC(=O)c2cccc(Nc3ccnc(C(F)(F)F)c3)c2)c(O)c1
RXF 393
  GI50: 0.398 µM
HCC 2998
  GI50: 0.182 µM
[1]
  GI50: 0.224 µM
HOP-62
  GI50: 0.251 µM
HL-60(TB)
  GI50: 0.316 µM
NCI-H226
  GI50: 0.372 µM
OVCAR-8
  GI50: 0.398 µM
MDA-MB-231
  GI50: 0.316 µM
NCI-H322M
  GI50: 0.2 µM
OVCAR-5
  GI50: 0.501 µM
NCI/ADR-RES
  GI50: 1 µM
SW-620
  GI50: 0.324 µM
SF-268
  GI50: 0.1 µM
UACC-257
  GI50: 0.275 µM
LOX IMVI
  GI50: 0.178 µM
SK-MEL-28
  GI50: 0.115 µM
HCT-116
  GI50: 0.126 µM
A498
  GI50: 0.479 µM
M14
  GI50: 0.229 µM
SK-OV-3
  GI50: 0.407 µM
IGROV-1
  GI50: 0.2 µM
ACHN
  GI50: 0.245 µM
HT-29
  GI50: 0.339 µM
COLO 205
  GI50: 0.282 µM
SK-MEL-2
  GI50: 0.407 µM
DU-145
  GI50: 0.251 µM
A549
  GI50: 0.389 µM
SNB-75
  GI50: 0.257 µM
BT-549
  GI50: 0.501 µM
MCF7
  GI50: 0.245 µM
HOP-92
  GI50: 1 µM
SN12C
  GI50: 0.309 µM
U-251
  GI50: 0.2 µM
UO-31
  GI50: 0.166 µM
RPMI-8226
  GI50: 0.158 µM
OVCAR-3
  GI50: 0.794 µM
[2]
  GI50: 0.182 µM
NCI-H460
  GI50: 0.2 µM
KM12
  GI50: 0.398 µM
CAKI-1
  GI50: 0.2 µM
MOLT-4
  GI50: 0.195 µM
786-0
  GI50: 0.24 µM
MDA-MB-435
  GI50: 0.339 µM
SR
  GI50: 0.2 µM
OVCAR-4
  GI50: 0.158 µM
T47D
  GI50: 0.631 µM
PC-3
  GI50: 0.741 µM
SNB-19
  GI50: 0.339 µM
SF-295
  GI50: 0.324 µM
HCT-15
  GI50: 0.126 µM
NCI-H23
  GI50: 0.646 µM
NCI-H522
  GI50: 0.407 µM
SF-539
  GI50: 0.263 µM
Malme-3M
  GI50: 0.339 µM
CCRF-CEM
  GI50: 0.141 µM
TK-10
  GI50: 0.501 µM
SK-MEL-5
  GI50: 0.224 µM
UACC-62
  GI50: 0.251 µM
